# Data from patent US20080300231A1, “Antibacterial amide macrocycles VI” (priority 2005, published 2008).
# How the values were obtained:
# Format in all cases: cell-based
# S. aureus 133 = test: Minimum inhibitory concentration (MIC), S. aureus 133; details: S. aureus 133
# Experimental: (§1) Determination of the Minimum Inhibitory Concentration (MIC)
# (§2) The minimum inhibitory concentration (MIC) is the minimum concentration of an antibiotic with which the growth of a test microbe is inhibited over 18-24 h. The inhibitor concentration can in these cases be determined by standard microbiological methods (see, for example, The National Committee for Clinical Laboratory Standards. Methods for dilution antimicrobial susceptibility tests for bacteria that grow aerobically; approved standard-fifth edition. NCCLS document M7-A5 [ISBN 1-56238-394-9]. NCCLS, 940 West Valley Road, Suite 1400, Wayne, Pa. 19087-1898 USA, 2000). The MIC of the compounds of the invention is determined in the liquid dilution test on the 96-well microtitre plate scale. The bacterial microbes are cultivated in a minimal medium (18.5 mM Na2HPO4, 5.7 mM KH2PO4, 9.3 mM NH4Cl, 2.8 mM MgSO4, 17.1 mM NaCl, 0.033 μg/ml of thiamine hydrochloride, 1.2 μg/ml of nicotinic acid, 0.003 μg/ml of biotin, 1% glucose, 25 μg/ml of each proteinogenic amino acid with the exception of phenylalanine; [H.-P. Kroll; unpublished]) with addition of 0.4% BH broth (test medium). In the case of Enterococcus faecium L4001, heat-inactivated fetal calf serum (FCS; GibcoBRL, Germany) is added to the test medium in a final concentration of 10%. Overnight cultures of the test microbes are diluted to an OD578 of 0.001 (to 0.01 in the case of enterococci) in fresh test medium, and incubated 1:1 with dilutions of the test substances (1:2 dilution steps) in test medium (200 μl final volume). The cultures are incubated at 37° C. for 18-24 hours; enterococci in the presence of 5% CO2
# (§3) The lowest substance concentration in each case at which no visible bacterial growth occurs any more is defined as the MIC.
# (§4) Alternative Method for Determining the Minimum Inhibitory Concentration (MIC)
# (§5) The minimum inhibitory concentration (MIC) is the minimum concentration of an antibiotic with which the growth of a test microbe is inhibited over 18-24 h. The inhibitor concentration can in these cases be determined by standard microbiological methods with modified medium in an agar dilution test (see, for example, The National Committee for Clinical Laboratory Standards. Methods for dilution antimicrobial susceptibility tests for bacteria that grow aerobically; approved standard-fifth edition. NCCLS document M7-A5 [ISBN 1-56238-394-9]. NCCLS, 940 West Valley Road, Suite 1400, Wayne, Pa. 19087-1898 USA, 2000). The bacterial microbes are cultivated on 1.5% agar plates which contain 20% defibrinated horse blood. The test microbes, which are incubated overnight on Columbia blood agar plates (Becton-Dickinson), are diluted in PBS, adjusted to a microbe count of about 5×10^5 microbes/ml and placed dropwise (1-3 μl) on test plates. The test substances comprise different dilutions of the test substances (1:2 dilution steps). The cultures are incubated at 37° C. in the presence of 5% CO2 for 18-24 hours.
# (§6) The lowest substance concentration in each case at which no visible bacterial growth occurred any more is defined as the MIC and is reported in μg/ml.
# S. aureus T17 = test: Minimum inhibitory concentration (MIC), biphenomycin-resistant S. aureus T17
# Experimental: as §1, §2, §3, §4, §5, §6
# The S. aureus strain T17 is isolated in vivo. CFW1 mice are infected intraperitoneally with 4×10^7 S. aureus 133 cells per mouse. 0.5 h after the infection, the animals are treated intravenously with 50 mg/kg biphenomycin B. The kidneys are removed from the surviving animals on day 3 after the infection. After homogenization of the organs, the homogenates are plated out as described for RN4220Bi^R on antibiotic-free and antibiotic-containing agar plates and incubated at 37° C. overnight. […] About 20 of these colonies are tested for the biphenomycin B MIC, and a colony with a MIC of >50 μM is selected for further cultivation, and the strain is referred to as T17.
# [1] = tested on: Enterococcus faecium L4001; test: Minimum inhibitory concentration (MIC), E. faecium L4001; details: E. faecium L4001; test medium with 10% FCS
# Experimental: as §1, §2, §3, §4, §5, §6
# S. aureus RN4220Bi^R = test: MIC against biphenomycin-resistant S. aureus strain RN4220Bi^R; details: colony selected as strain RN4220Bi^R
# Experimental: (§7) The S. aureus strain RN4220Bi^R is isolated in vitro. […] Whereas about 1×10^7 cells grow on the antibiotic-free plate, about 100 colonies grow on the antibiotic-containing plate, corresponding to a resistance rate of 1×10^5. Some of the colonies grown on the antibiotic-containing plate are tested for the biphenomycin B MIC. One colony with a MIC of >50 μM is selected for further use, and the strain is referred to as RN4220Bi^R.
# S. aureus RN4220 = test: Resistance rate of S. aureus RN4220 on biphenomycin B agar plate; details: agar plate containing 2 μg/ml biphenomycin B (10×MIC), 37° C. overnight
# Experimental: as §7
structure (smiles),measurement,setting,value
"NC[C@H](O)C[C@@H]1NC(=O)[C@@H](N)Cc2cc(ccc2O)-c2ccc(O)c(c2)C[C@@H](C(=O)O)NC1=O [Biphenomycin B, biphenomycin B, reference compound]",MIC S. aureus 133,S. aureus 133,<0.03 µg/mL
same,MIC S. aureus T17,S. aureus T17; biphenomycin-resistant S. aureus T17,>32 µg/mL
same,MIC,S. aureus T17; colony from kidney selected as strain T17,> 50 µM
same,MIC E. faecium L4001,[1],0.5 µg/mL
same,MIC,S. aureus RN4220Bi^R,> 50 µM
same,resistance rate,S. aureus RN4220,1×10^5
